# Tested on: vergetures blanches
# Assay: Tolerance of cutaneous application (side effects) on skin with white stretch marks
# Format: in vivo, individus
# Details: as active ingredient together with the excipients of formule 1
# From the text: Pour évaluer l'efficacité et la tolérance d'application de la composition de l'invention, 27 individus ont appliqué, matin et soir, pendant 90 jours, sur une zone de peau nettoyée avec vergetures blanches existantes, soit une composition selon l'invention, soit une composition « placebo ».
# Chez chaque individu, la composition « placebo » a été appliquée sur une première moitié de la zone constituée par les vergetures blanches, et la composition de l'invention sur l'autre moitié de ladite zone. L'application cutanée sur les différentes zones de vergetures blanches a été accompagnée d'un léger massage pour favoriser la pénétration dans la peau de chacune des deux compositions. En moyenne, il a été appliqué entre 0,02 et 0,04 mL de composition / cm^2 de peau avec vergetures blanches.
# On entend par « effet secondaire » des brûlures, irritations, démangeaisons ou tout autre type de modification de la peau au niveau de la surface d'application de la composition de l'invention. Ainsi, le palmitoyl-tripeptide-5, en tant que principe actif dermatologique, en association avec les excipients, est bien toléré en application cutanée.
substance,measurement,value
palmitoyl-tripeptide-5,tolérance en application cutanée,bien toléré

# Source: EP4151202A1, “COMPOSITION FOR PREVENTING AND/OR TREATING WHITE STRETCH MARKS” (LSI Silderma Ltd, priority 2021, dated 2023)
